Legend:
Assay type in all cases: in vivo
[1] = system: velvetleaf (Abutilon theophrasti); assay: Test C greenhouse herbicide test, pre- and postemergence
Text: (§1) Seeds of plant species selected from blackgrass (Alopecurus myosuroides), ryegrass, Italian (Italian ryegrass, Lolium multiflorum), wheat (winter wheat, Triticum aestivum), galium (catchweed bedstraw, Galium aparine), corn (Zea mays), large crabgrass, large (large crabgrass, Digitaria sanguinalis), foxtail, giant (giant foxtail, Setaria faberii), johnsongrass (Sorghum halepense), lambsquarters (Chenopodium album), morningglory (Ipomoea coccinea), nutsedge, yellow (yellow nutsedge, Cyperus esculentus), pigweed (Amaranthus retroflexus), ragweed (common ragweed, Ambrosia elatior), soybean (Glycine max), barnyardgrass (Echinochloa crus-galli), oilseed rape (Brassica napus), waterhemp (common waterhemp, Amaranthus rudis), and velvetleaf (Abutilon theophrasti) were planted into a blend of loam soil and sand and treated preemergence with test chemicals formulated in a non-phytotoxic solvent mixture which included a surfactant.
(§2) At the same time, plants selected from these crop and weed species and also chickweed (common chickweed, Stellaria media), kochia (Kochia scoparia), and oat, wild (wild oat, Avena fatua), were planted in pots containing Redi-Earth® planting medium (Scotts Company, 14111 Scottslawn Road, Marysville, Ohio 43041) comprising spaghnum peat moss, vermiculite, wetting agent and starter nutrients and treated with postemergence applications of test chemicals formulated in the same manner. Plants ranged in height from 2 to 18 cm (1- to 4-leaf stage) for postemergence treatments. Treated plants and controls were maintained in a greenhouse for 13 to 15 d, after which time all species were compared to controls and visually evaluated. Plant response ratings, summarized in Table C, are based on a scale of 0 to 100 where 0 is no effect and 100 is complete control. A dash (-) response means no test result.

[2] = system: pigweed (Amaranthus retroflexus); assay: as above
Text: as §1, §2

[3] = system: blackgrass (Alopecurus myosuroides); assay: as above
Text: as §1, §2

[4] = system: morningglory (Ipomoea coccinea); assay: as above
Text: as §1, §2

[5] = system: ryegrass, Italian (Italian ryegrass, Lolium multiflorum); assay: as above
Text: as §1, §2

corn (Zea mays) = assay: as above
Text: as §1, §2

[6] = system: pigweed (Amaranthus retroflexus); assay: Test A greenhouse herbicide test, pre- and postemergence
In short: (§3)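 Seeds in loam–sand blend received a preemergence directed soil spray; plants at 2–10 cm, one- to two-leaf stage, received postemergence sprays. Compounds in a non-phytotoxic solvent with surfactant. After about 10 d in a greenhouse, injury rated visually versus untreated controls on a 0–100 scale (100 = complete control).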

kochia (Kochia scoparia) = assay: as above
In short: as §3

[7] = system: wheat (Triticum aestivum); assay: as above; settings: Postemergence; for Plant response rating, Wheat: 125 g ai/ha, 0 to 100 scale where 0 is no effect and 100 is complete control; for Wheat plant response rating: 500 g ai/ha, 0 to 100 scale, 0 is no effect, 100 is complete control
In short: as §3

[8] = system: foxtail, giant (giant foxtail, Setaria faberii); assay: as above
In short: as §3

[9] = system: ragweed (common ragweed, Ambrosia elatior); assay: as above
In short: as §3

[10] = Postemergence, 8 g ai/ha, scale 0 to 100 (0 no effect, 100 complete control)
[11] = Postemergence, 16 g ai/ha, scale 0 to 100 (0 no effect, 100 complete control)
[12] = Postemergence, 31 g ai/ha, 0 to 100 scale (0 no effect, 100 complete control)
[13] = Preemergence, 16 g ai/ha, scale 0 to 100, 0 is no effect, 100 is complete control
[14] = Preemergence, 31 g ai/ha, scale 0 to 100, 0 is no effect, 100 is complete control
[15] = Preemergence, 62 g ai/ha, scale 0 to 100, 0 is no effect, 100 is complete control
[16] = postemergence, 62 g ai/ha, scale 0 to 100, 0 no effect, 100 complete control
[17] = Preemergence, 8 g ai/ha, scale 0 to 100, 0 is no effect, 100 is complete control
[18] = Postemergence, 125 g ai/ha, visual rating after approx. 10 d, 0 to 100 scale (0 no effect, 100 complete control)
[19] = Postemergence, 500 g ai/ha, 0 to 100 scale, 0 is no effect, 100 is complete control
[20] = Preemergence, 125 g ai/ha, 0 to 100 scale where 0 is no effect and 100 is complete control
[21] = Preemergence, 500 g ai/ha, 0 to 100 scale, 0 no effect, 100 complete control
[22] = Postemergence, 125 g ai/ha, scale 0 to 100, 0 is no effect, 100 is complete control
[23] = Postemergence, 250 g ai/ha, scale 0 to 100, 0 no effect, 100 complete control, 13 to 15 d
[24] = Preemergence, 125 g ai/ha, scale 0 to 100, 0 is no effect, 100 is complete control
[25] = Preemergence, 250 g ai/ha, scale 0 to 100, 0 no effect, 100 complete control
[26] = Postemergence, 125 g ai/ha, 0 to 100 scale where 0 is no effect and 100 is complete control

With `Cc1nn(C)c(=O)c(-c2c(C)sc3c(C)cc(Cl)cc23)c1O` [Compound 35] the “Plant response rating, Velvetleaf” value [1, 10] was 60, the “Plant response rating, Velvetleaf” value [1, 11] was 75 and the “Velvetleaf plant response rating” value [1, 12] was 100. The “Plant response rating, Velvetleaf” value [1, 13] was 0, the “Plant response rating, Velvetleaf” value [1, 14] was 40 and the “Plant response rating, Velvetleaf” value [1, 15] was 85. For the same compound, the “Velvetleaf plant response rating” value [1, 16] was 100, the “Plant response rating, Pigweed” value [2, 10] was 35 and the “Plant response rating, Pigweed” value [2, 11] was 25. The “Pigweed plant response rating” value [2, 12] was 60, the “Plant response rating, Pigweed” value [2, 13] was 75 and the “Plant response rating, Pigweed” value [2, 14] was 75. The “Plant response rating, Pigweed” value [2, 15] was 80, the “Pigweed plant response rating” value [2, 16] was 55 and the “Plant response rating, Blackgrass” value [3, 10] was 0. The “Plant response rating, Blackgrass” value [3, 11] was 5, the “Blackgrass plant response rating” value [3, 12] was 15 and the “Plant response rating, Blackgrass” value [3, 17] was 5. The “Plant response rating, Blackgrass” value [3, 13] was 40, the “Plant response rating, Blackgrass” value [3, 14] was 50 and the “Plant response rating, Blackgrass” value [3, 15] was 55. For the same compound, the “Blackgrass plant response rating” value [3, 16] was 45, the “Plant response rating, Morningglory” value [4, 10] was 100 and the “Plant response rating, Morningglory” value [4, 11] was 100. For the same compound, the “Morningglory plant response rating” value [4, 12] was 100, the “Plant response rating, Morningglory” value [4, 13] was 25 and the “Plant response rating, Morningglory” value [4, 14] was 25. The “Plant response rating, Morningglory” value [4, 15] was 98, the “Morningglory plant response rating” value [4, 16] was 100 and the “Plant response rating, Ryegrass, Italian” value [5, 10] was 10. The “Plant response rating, Ryegrass, Italian” value [5, 11] was 30, the “Ryegrass, Italian plant response rating” value [5, 12] was 35 and the “Plant response rating, Ryegrass, Italian” value [5, 13] was 50. For the same compound, the “Plant response rating, Ryegrass, Italian” value [5, 14] was 65, the “Plant response rating, Ryegrass, Italian” value [5, 15] was 70 and the “Ryegrass, Italian plant response rating” value [5, 16] was 55. For the same compound, the “Plant response rating, Corn” value (corn (Zea mays); [10]) was 0, the “Plant response rating, Corn” value (corn (Zea mays); [11]) was 0 and the “Corn plant response rating” value (corn (Zea mays); [12]) was 5. For the same compound, the “Plant response rating, Corn” value (corn (Zea mays); [17]) was 0, the “Plant response rating, Corn” value (corn (Zea mays); [13]) was 0 and the “Plant response rating, Corn” value (corn (Zea mays); [14]) was 0. The “Plant response rating, Corn” value (corn (Zea mays); [15]) was 0, the “Corn plant response rating” value (corn (Zea mays); [16]) was 5 and the “Plant response rating, Pigweed” value [6, 18] was 80. For the same compound, the “Pigweed plant response rating” value [6, 19] was 90, the “Pigweed plant response rating” value [6, 20] was 60 and the “Plant response rating, Pigweed” value [6, 21] was 90. For the same compound, the “Plant response rating, Kochia” value (kochia (Kochia scoparia); [18]) was 80, the “Kochia plant response rating” value (kochia (Kochia scoparia); [19]) was 100 and the “Kochia plant response rating” value (kochia (Kochia scoparia); [20]) was 40. For the same compound, the “Plant response rating, Kochia” value (kochia (Kochia scoparia); [21]) was 70, the “Plant response rating, Wheat” value [7] was 20 and the “Wheat plant response rating” value [7] was 40. The “Plant response rating, Foxtail, Giant” value [8, 18] was 90, the “Foxtail, Giant plant response rating” value [8, 19] was 90 and the “Foxtail, Giant plant response rating” value [8, 20] was 90. The “Plant response rating, Foxtail, Giant” value [8, 21] was 100, the “Plant response rating, Ragweed” value [9, 18] was 50 and the “Ragweed plant response rating” value [9, 19] was 80. For the same compound, the “Ragweed plant response rating” value [9, 20] was 70 and the “Plant response rating, Ragweed” value [9, 21] was 80.
In the case of `Cc1nn(C)c(=O)c(-c2ccc(F)c3ccccc23)c1O` [Compound 41], the “Velvetleaf plant response rating” value [1, 12] is reported as 30, the “Plant response rating, Velvetleaf” value [1, 22] is reported as 85 and the “Plant response rating, Velvetleaf” value [1, 23] is reported as 90. For the same compound, the “Plant response rating, Velvetleaf” value [1, 14] was 85, the “Plant response rating, Velvetleaf” value [1, 15] was 90 and the “Plant response rating, Velvetleaf” value [1, 24] was 95. For the same compound, the “Velvetleaf plant response rating” value [1, 25] was 98, the “Velvetleaf plant response rating” value [1, 16] was 65 and the “Pigweed plant response rating” value [2, 12] was 65. The “Plant response rating, Pigweed” value [2, 22] was 75, the “Plant response rating, Pigweed” value [2, 23] was 95 and the “Plant response rating, Pigweed” value [2, 14] was 75. The “Plant response rating, Pigweed” value [2, 15] was 100, the “Plant response rating, Pigweed” value [2, 24] was 100 and the “Pigweed plant response rating” value [2, 25] was 100. For the same compound, the “Pigweed plant response rating” value [2, 16] was 75, the “Blackgrass plant response rating” value [3, 12] was 30 and the “Plant response rating, Blackgrass” value [3, 22] was 50. For the same compound, the “Plant response rating, Blackgrass” value [3, 23] was 60, the “Plant response rating, Blackgrass” value [3, 14] was 70 and the “Plant response rating, Blackgrass” value [3, 15] was 80. The “Plant response rating, Blackgrass” value [3, 24] was 85, the “Blackgrass plant response rating” value [3, 25] was 90 and the “Blackgrass plant response rating” value [3, 16] was 35. For the same compound, the “Morningglory plant response rating” value [4, 12] was 95, the “Plant response rating, Morningglory” value [4, 22] was 100 and the “Plant response rating, Morningglory” value [4, 23] was 98. For the same compound, the “Plant response rating, Morningglory” value [4, 14] was 85, the “Plant response rating, Morningglory” value [4, 15] was 95 and the “Plant response rating, Morningglory” value [4, 24] was 95. For the same compound, the “Morningglory plant response rating” value [4, 25] was 98, the “Morningglory plant response rating” value [4, 16] was 95 and the “Ryegrass, Italian plant response rating” value [5, 12] was 80. For the same compound, the “Plant response rating, Ryegrass, Italian” value [5, 22] was 90, the “Plant response rating, Ryegrass, Italian” value [5, 23] was 90 and the “Plant response rating, Ryegrass, Italian” value [5, 14] was 95. For the same compound, the “Plant response rating, Ryegrass, Italian” value [5, 15] was 95, the “Plant response rating, Ryegrass, Italian” value [5, 24] was 95 and the “Ryegrass, Italian plant response rating” value [5, 25] was 95. The “Ryegrass, Italian plant response rating” value [5, 16] was 90, the “Corn plant response rating” value (corn (Zea mays); [12]) was 5 and the “Plant response rating, Corn” value (corn (Zea mays); [22]) was 10. The “Plant response rating, Corn” value (corn (Zea mays); [23]) was 20, the “Plant response rating, Corn” value (corn (Zea mays); [14]) was 0 and the “Plant response rating, Corn” value (corn (Zea mays); [15]) was 0. For the same compound, the “Plant response rating, Corn” value (corn (Zea mays); [24]) was 5, the “Corn plant response rating” value (corn (Zea mays); [25]) was 40 and the “Corn plant response rating” value (corn (Zea mays); [16]) was 5. The “Plant response rating, Pigweed” value [6, 26] was 60, the “Pigweed plant response rating” value [6, 19] was 90 and the “Pigweed plant response rating” value [6, 20] was 100. The “Plant response rating, Pigweed” value [6, 21] was 100, the “Plant response rating, Kochia” value (kochia (Kochia scoparia); [26]) was 100 and the “Kochia plant response rating” value (kochia (Kochia scoparia); [19]) was 100. The “Kochia plant response rating” value (kochia (Kochia scoparia); [20]) was 90, the “Plant response rating, Kochia” value (kochia (Kochia scoparia); [21]) was 100 and the “Plant response rating, Wheat” value [7] was 0. The “Wheat plant response rating” value [7] was 80, the “Plant response rating, Foxtail, Giant” value [8, 26] was 70 and the “Foxtail, Giant plant response rating” value [8, 19] was 100. For the same compound, the “Foxtail, Giant plant response rating” value [8, 20] was 70, the “Plant response rating, Foxtail, Giant” value [8, 21] was 90 and the “Plant response rating, Ragweed” value [9, 26] was 70. The “Ragweed plant response rating” value [9, 19] was 100, the “Ragweed plant response rating” value [9, 20] was 80 and the “Plant response rating, Ragweed” value [9, 21] was 90.
